The record followed here is patent US9090599B2, “Heteroarylmethyl amides” (Hoffman-La Roche Inc., priority 2010, dated 2015).

For one assay, the target named is T1, human CB2 receptor (Homo sapiens, UniProt P34972).
T1 construct: expressed in transfected cells; host or cells: human embryonic kidney (HEK) cells, Semliki Forest Virus system, membrane preparations
Description: CB2 receptor affinity, [3H]-CP-55,940 displacement, HEK cell membranes. The class given is binding. To be noted: 10 μM compound, radioligand [3H]-CP-55,940. The protocol: The affinity of the compounds of the invention for cannabinoid CB2 receptors was determined using membrane preparations of human embryonic kidney (HEK) cells in which the human CB2 receptor is transiently transfected using a Semliki Forest Virus system in conjunction with [^3H]-CP-55,940 as radioligand. After incubation of freshly prepared cell membrane preparation with the [^3H]-ligand, with or without addition of compounds of the invention, separation of bound and free ligand was performed by filtration over glass fiber filters. Radioactivity on the filter was measured by scintillation counting.
(§1) The ability of the compounds to displace the radioligand [^3H]-CP-55,940 was measured at a concentration of 10 μM and values provided as [% inhibition @ 10 μM] both for the CB 1 and CB2 receptor assay, The lower % inhibition is, the lower the likelihood of side effects based on CB1 or CB2 receptor inhibition is.

A further assay has as its target T2, human CB1 receptor (Homo sapiens, UniProt P21554).
T2 construct: expressed in transfected cells; host or cells: human embryonic kidney (HEK) cells, Semliki Forest Virus system, membrane preparations
In words: CB1 receptor affinity, [3H]-CP-55,940 displacement, HEK cell membranes. The class given is binding. Particulars: read-out: CB1 receptor affinity [% inhibition @ 10 μM]. The procedure:
The affinity of the compounds of the invention for cannabinoid receptors was determined using membrane preparations of human embryonic kidney (HEK) cells in which the human CB1 receptor is transiently transfected using a Semliki Forest Virus system in conjunction with [3H]-CP-55,940 as radioligand. After incubation of freshly prepared cell membrane preparation with the [^3H]-ligand, with or without addition of compounds of the invention, separation of bound and free ligand was performed by filtration over glass fiber filters. Radioactivity on the filter was measured by scintillation counting.
as §1

Setting [1] is: 10 μM compound, radioligand [3H]-CP-55,940.

Each structure is given as a SMILES string. Read-outs that look alike come from different tables or passages of the source.

T2 sequence (P21554 whole entry): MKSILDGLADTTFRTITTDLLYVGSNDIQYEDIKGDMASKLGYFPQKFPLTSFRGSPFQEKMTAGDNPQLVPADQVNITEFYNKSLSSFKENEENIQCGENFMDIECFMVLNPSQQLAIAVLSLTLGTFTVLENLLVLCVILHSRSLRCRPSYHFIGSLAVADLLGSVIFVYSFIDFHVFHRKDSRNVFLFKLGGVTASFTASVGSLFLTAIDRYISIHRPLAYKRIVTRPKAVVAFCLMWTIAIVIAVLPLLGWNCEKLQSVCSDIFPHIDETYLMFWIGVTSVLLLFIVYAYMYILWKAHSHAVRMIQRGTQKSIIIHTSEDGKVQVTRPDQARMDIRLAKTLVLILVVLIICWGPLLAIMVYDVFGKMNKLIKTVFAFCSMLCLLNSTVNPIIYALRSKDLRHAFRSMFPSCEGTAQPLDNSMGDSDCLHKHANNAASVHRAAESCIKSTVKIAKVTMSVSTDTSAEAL
T1 sequence (P34972 whole entry): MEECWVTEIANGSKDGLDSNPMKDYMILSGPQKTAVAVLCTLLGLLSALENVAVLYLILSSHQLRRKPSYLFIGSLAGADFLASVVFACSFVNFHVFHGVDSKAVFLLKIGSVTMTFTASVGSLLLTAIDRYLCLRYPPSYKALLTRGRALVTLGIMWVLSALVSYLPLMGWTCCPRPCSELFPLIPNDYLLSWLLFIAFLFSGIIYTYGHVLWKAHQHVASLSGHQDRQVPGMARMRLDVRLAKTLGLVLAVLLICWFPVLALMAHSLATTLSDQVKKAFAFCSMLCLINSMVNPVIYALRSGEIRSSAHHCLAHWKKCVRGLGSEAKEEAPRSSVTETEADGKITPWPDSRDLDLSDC

On to `C[C@H](Oc1cnc(C(=O)NCc2nc(C(F)(F)F)no2)nc1-c1ccc(Cl)cc1)C(F)(F)F` [Example 35, (S)-4-(4-chlorophenyl)-N-((3-(trifluoromethyl)-1,2,4-oxadiazol-5-yl)methyl)-5-(1,1,1-trifluoropropan-2-yloxy)pyrimidine-2-carboxamide], for which the figures for the inhibition at 10 µM on human CB2 receptor and on human CB1 receptor (setting [1]) were 22% and 50%, respectively.
`COCCOc1ncc(C(=O)NCc2nc(C(F)(F)F)no2)cc1-c1ccc(Cl)c(C)c1` [Example 98, 5-(4-chloro-3-methylphenyl)-6-(2-methoxyethoxy)-N-((3-(trifluoromethyl)-1,2,4-oxadiazol-5-yl)methyl)nicotinamide]: the values for the inhibition at 10 µM on human CB2 receptor and at human CB1 receptor (setting [1]) were 16% and 41%, respectively.
In the same order, the values of `O=C(NCc1ccccn1)c1cnc(OC2CCC2)c(-c2ccc(Cl)cc2)c1` [Example 101, 5-(4-chlorophenyl)-6-cyclobutoxy-N-(pyridin-2-ylmethyl)nicotinamide] are 37% and 45%.
Turning to `O=C(NCc1nc(C2CC2)no1)c1ncc(OCC2CC2)c(-c2ccc(Cl)cc2)n1` [Example 17, 4-(4-chloro-phenyl)-5-cyclopropylmethoxy-pyrimidine-2-carboxylic acid (3-cyclopropyl-[1,2,4]oxadiazol-5-ylmethyl)-amide], the values for the inhibition at 10 µM at human CB2 receptor and on human CB1 receptor (setting [1]) were 45% and 48%, respectively.
For the compound `O=C(NCc1nc(C(F)(F)F)no1)c1cnc(OCC(F)(F)F)c(-c2ccc(Cl)c(F)c2)c1` [Example 82, 5-(4-chloro-3-fluorophenyl)-6-(2,2,2-trifluoroethoxy)-N-((3-(trifluoromethyl)-1,2,4-oxadiazol-5-yl)methyl)nicotinamide], the inhibition (in general, the relative decrease from the control value, in per cent) at 10 µM turned out to be 27% on human CB2 receptor and 30% on human CB1 receptor (setting [1]).
For the compound `O=C(NCc1nc(C(F)(F)F)no1)c1cnc(OC2CCC2)c(-c2ccc(Cl)cc2)c1` [Example 92, 5-(4-chlorophenyl)-6-cyclobutoxy-N-((3-(trifluoromethyl)-1,2,4-oxadiazol-5-yl)methyl)nicotinamide], the inhibition at 10 µM is 9% on human CB2 receptor and 43% at human CB1 receptor (setting [1]).
With `COCCOc1ncc(C(=O)NCc2nc(C(F)(F)F)no2)cc1-c1ccc(Cl)c(F)c1` [Example 97, 5-(4-chloro-3-fluorophenyl)-6-(2-methoxyethoxy)-N-((3-(trifluoromethyl)-1,2,4-oxadiazol-5-yl)methyl)nicotinamide], the values for the inhibition at 10 µM on human CB2 receptor and on human CB1 receptor were 25% and 48%, respectively.
With `O=C(NCc1nc(C(F)(F)F)no1)c1cnc(OCC2CC2)c(-c2ccc(F)c(F)c2)c1` [Example 95, 6-(cyclopropylmethoxy)-5-(3,4-difluorophenyl)-N-((3-(trifluoromethyl)-1,2,4-oxadiazol-5-yl)methyl)nicotinamide], the inhibition at 10 µM came to 21% on human CB2 receptor and 39% on human CB1 receptor (setting [1]).
With `O=C(NCc1nc(C(F)(F)F)no1)c1cnc(OCC(F)(F)F)c(-c2ccc(Cl)cc2F)c1` [Example 84, 5-(4-chloro-2-fluorophenyl)-6-(2,2,2-trifluoroethoxy)-N-((3-(trifluoromethyl)-1,2,4-oxadiazol-5-yl)methyl)nicotinamide], the inhibition at 10 µM stood at 21% on human CB2 receptor and 49% on human CB1 receptor (setting [1]).
On to `COCCOc1ncc(C(=O)NCc2nc(C(F)(F)F)no2)cc1-c1ccc(F)c(F)c1` [Example 96, 5-(3,4-difluorophenyl)-6-(2-methoxyethoxy)-N-((3-(trifluoromethyl)-1,2,4-oxadiazol-5-yl)methyl)nicotinamide], for which the values for the inhibition at 10 µM at human CB2 receptor and at human CB1 receptor (setting [1]) were 8% and 45%, respectively.
As to `O=C(NCc1coc(C2CC2)n1)c1ccc(OCC2CC2)c(-c2ccc(Cl)cc2)n1` [Example 56, 6-(4-chloro-phenyl)-5-cyclopropylmethoxy-pyridine-2-carboxylic acid (2-cyclopropyl-oxazol-4-ylmethyl)-amide], the inhibition at 10 µM stood at 32% at human CB2 receptor and 38% on human CB1 receptor (setting [1]).
In the case of `CC(C)(C)c1nc(CNC(=O)c2cc(-c3ccc(Cl)cc3)c(OCC(F)(F)F)nn2)cs1` [Example 65, 5-(4-chloro-phenyl)-6-(2,2,2-trifluoro-ethoxy)-pyridazine-3-carboxylic acid (2-tert-butyl-thiazol-4-ylmethyl)-amide], the inhibition at 10 µM at human CB1 receptor (setting [1]) is 18%.
Take `C[C@H](Oc1ncc(C(=O)NCc2ccccn2)nc1-c1ccc(Cl)cc1)C(F)(F)F` [Example 69, (S)-6-(4-chlorophenyl)-N-(pyridin-2-ylmethyl)-5-(1,1,1-trifluoropropan-2-yloxy)pyrazine-2-carboxamide]: the inhibition at 10 µM was found to be 40% on human CB2 receptor and 34% at human CB1 receptor (setting [1]).
For `O=C(NCc1noc(C2CC2)n1)c1cc(-c2ccc(Cl)cc2)c(OCC(F)(F)F)nn1` [Example 41, 5-(4-chloro-phenyl)-6-(2,2,2-trifluoro-ethoxy)-pyridazine-3-carboxylic acid (5-cyclopropyl-[1,2,4]oxadiazol-3-ylmethyl)-amide], the inhibition at 10 µM on human CB2 receptor stood at 19%; at human CB1 receptor (setting [1]), 23%.
For `O=C(NCc1nc(C(F)(F)F)no1)c1cnc(OC[C@@H]2CCOC2)c(-c2ccc(Cl)cc2)c1` (stereo in doubt) [Example 105, 5-(4-Chloro-phenyl)-6-[(RS)-1-(tetrahydro-furan-3-yl)methoxy]-N-(3-trifluoromethyl-[1,2,4]oxadiazol-5-ylmethyl)-nicotinamide] the same measures were 17% and 47%.
On to `O=C(NCc1cc(C(F)(F)F)on1)c1cnc(OCC(F)(F)F)c(-c2ccc(Cl)cc2)c1` [Example 50, 5-(4-chloro-phenyl)-6-(2,2,2-trifluoro-ethoxy)-N-(5-trifluoromethyl-isoxazol-3-ylmethyl)-nicotinamide], for which the inhibition at 10 µM is -5% on human CB2 receptor and 38% on human CB1 receptor (setting [1]).
In the same order, the values of `O=C(NCc1nc(C(F)(F)F)no1)c1ncc(OCC2CC2)c(-c2ccc(Cl)cc2)n1` [Example 21, 4-(4-chloro-phenyl)-5-cyclopropylmethoxy-pyrimidine-2-carboxylic acid (3-trifluoromethyl-[1,2,4]oxadiazol-5-ylmethyl)-amide] are 35% and 44%.
`O=C(NCc1cc(C(F)(F)F)no1)c1cnc(OCC(F)(F)F)c(-c2ccc(Cl)cc2)c1` [Example 59, 5-(4-chloro-phenyl)-6-(2,2,2-trifluoro-ethoxy)-N-(3-trifluoromethyl-isoxazol-5-ylmethyl)-nicotinamide]: the inhibition at 10 µM was -2% on human CB2 receptor and 49% on human CB1 receptor.
With `O=C(NCc1cc(C(F)(F)F)no1)c1ncc(OCC2CC2)c(-c2ccc(Cl)cc2)n1` [Example 62, 4-(4-chloro-phenyl)-5-cyclopropylmethoxy-pyrimidine-2-carboxylic acid (3-trifluoromethyl-isoxazol-5-ylmethyl)-amide], the inhibition at 10 µM stood at 24% on human CB2 receptor and 44% on human CB1 receptor (setting [1]).
For the compound `CCc1nc(CNC(=O)c2cnc(OCC3CC3)c(-c3ccc(Cl)cc3)c2)cs1` [Example 10, 5-(4-chloro-phenyl)-6-cyclopropylmethoxy-N-(2-ethyl-thiazol-4-ylmethyl)-nicotinamide], the inhibition at 10 µM on human CB2 receptor and at human CB1 receptor (setting [1]) was 28% throughout.
With `O=C(NCc1nc(C(F)(F)F)no1)c1ncc(OCC(F)(F)F)c(-c2ccc(Cl)cc2)n1` [Example 16, 4-(4-chloro-phenyl)-5-(2,2,2-trifluoro-ethoxy)-pyrimidine-2-carboxylic acid (3-trifluoromethyl-[1,2,4]oxadiazol-5-ylmethyl)-amide], the inhibition at 10 µM was found to be 15% on human CB2 receptor and 38% at human CB1 receptor (setting [1]).
With `O=C(NCc1cc(C(F)(F)F)on1)c1cnc(OCC2CC2)c(-c2ccc(Cl)cc2)c1` [Example 66, 5-(4-chloro-phenyl)-6-cyclopropylmethoxy-N-(5-trifluoromethyl-isoxazol-3-ylmethyl)-nicotinamide], the inhibition at 10 µM turned out to be 18% on human CB2 receptor and 49% at human CB1 receptor (setting [1]).
With `O=C(NCc1nc(C(F)(F)F)no1)c1cnc(OCCO)c(-c2ccc(Cl)cc2)c1` [Example 102, 5-(4-chlorophenyl)-6-(2-hydroxyethoxy)-N-((3-(trifluoromethyl)-1,2,4-oxadiazol-5-yl)methyl)nicotinamide], the inhibition at 10 µM at human CB2 receptor was -4%; at human CB1 receptor (setting [1]) it was 26%.
Take `O=C(NCc1csc(C2CC2)n1)c1ccc(OCC2CC2)c(-c2ccc(Cl)cc2)n1` [Example 57, 6-(4-chloro-phenyl)-5-cyclopropylmethoxy-pyridine-2-carboxylic acid (2-cyclopropyl-thiazol-4-ylmethyl)-amide]: the figures for the inhibition at 10 µM at human CB2 receptor and at human CB1 receptor were 36% and 31%, respectively.
As to `Cc1noc(CNC(=O)c2cnc(OCC(F)(F)F)c(-c3ccc(Cl)cc3)c2)n1` [Example 90, 5-(4-chlorophenyl)-N-((3-methyl-1,2,4-oxadiazol-5-yl)methyl)-6-(2,2,2-trifluoroethoxy)nicotinamide], the inhibition at 10 µM at human CB2 receptor was found to be 14%; on human CB1 receptor (setting [1]), 50%.
